Laboratory results reported in patent US7160890B2, “Compounds specific to adenosine A3 receptor and uses thereof” (OSI Pharmaceuticals, Inc., priority 1999, dated 2007).

How the values were obtained:
[1] = target: T1, human A3 receptor subtype (Homo sapiens, UniProt P0DMS8); test: Adenosine 3 receptor competition radioligand binding, [125I]AB-MECA, HEK293 membranes; details: compared with compound 1308
T1 construct: expressed in transfected cells; host or cells: HEK293
T1 sequence (P0DMS8 1-318): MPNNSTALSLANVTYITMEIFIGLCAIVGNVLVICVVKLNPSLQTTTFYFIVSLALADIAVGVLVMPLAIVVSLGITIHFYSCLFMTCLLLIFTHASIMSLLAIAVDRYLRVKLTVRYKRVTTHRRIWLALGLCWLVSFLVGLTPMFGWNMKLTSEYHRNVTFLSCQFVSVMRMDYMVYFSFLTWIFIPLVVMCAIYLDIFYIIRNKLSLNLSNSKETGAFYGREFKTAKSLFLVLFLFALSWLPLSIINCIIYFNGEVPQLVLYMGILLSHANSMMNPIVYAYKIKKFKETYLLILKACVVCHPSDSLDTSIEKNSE

[2] = target: T2, human A2a receptor subtype (Homo sapiens, UniProt P29274); test: Adenosine 2a receptor subtype competition radioligand binding, [3H]CGS-21680, HEK293 membranes; details: Table 13, concentration not given
T2 construct: expressed in transfected cells; host or cells: HEK-293 (Cadus clone #5)
T2 sequence (P29274 whole entry): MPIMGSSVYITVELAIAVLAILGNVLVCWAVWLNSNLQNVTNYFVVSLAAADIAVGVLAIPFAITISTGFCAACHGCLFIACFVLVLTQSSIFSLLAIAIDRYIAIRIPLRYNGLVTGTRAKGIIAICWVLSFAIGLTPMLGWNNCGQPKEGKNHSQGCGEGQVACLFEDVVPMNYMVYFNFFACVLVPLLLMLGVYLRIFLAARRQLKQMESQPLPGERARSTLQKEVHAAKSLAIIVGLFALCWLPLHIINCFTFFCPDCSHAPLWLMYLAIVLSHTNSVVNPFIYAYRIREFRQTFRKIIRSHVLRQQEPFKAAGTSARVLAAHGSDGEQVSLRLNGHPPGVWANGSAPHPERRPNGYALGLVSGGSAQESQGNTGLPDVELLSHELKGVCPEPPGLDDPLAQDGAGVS

[3] = target: T3, human A1 receptor subtype (Homo sapiens, UniProt P30542); details: Table 13, concentration not given
T3 sequence (P30542 1-326): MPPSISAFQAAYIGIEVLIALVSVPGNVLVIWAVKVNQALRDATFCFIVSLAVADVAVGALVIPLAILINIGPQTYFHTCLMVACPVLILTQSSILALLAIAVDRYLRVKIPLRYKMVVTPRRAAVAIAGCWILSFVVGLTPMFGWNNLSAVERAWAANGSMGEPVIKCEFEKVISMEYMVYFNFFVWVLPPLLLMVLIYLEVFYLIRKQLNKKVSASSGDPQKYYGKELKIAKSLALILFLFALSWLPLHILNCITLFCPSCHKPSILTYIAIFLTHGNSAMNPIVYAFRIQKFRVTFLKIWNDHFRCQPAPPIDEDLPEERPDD

[4] = target: human A1 adenosine receptor (Homo sapiens, UniProt P30542); details: cited from earlier work

c1ccc(-c2nc(NCCc3cnc[nH]3)c3cc[nH]c3n2)cc1 [Compound 1720, [2-(3H-Imidazol-4-yl)-ethyl]-(2-phenyl-7H-pyrrolo[2,3-d]pyrimidin-4-yl)-amine]
A3 receptor binding affinity relative to reference compound 1308 [1]: greater than 10 times
melting point: 234 to 235 °C

CNC(=O)NCCCNc1nc(-c2ccccc2)nc2[nH]c(C)c(C)c12 [Compound 1310]
Binding A2a, value given in % [2]: 76%

Cc1[nH]c2nc(-c3ccccc3)nc(NCCNC(=O)C3(N)CC3)c2c1C [Compound 1313]
Binding A1, value printed in % [3]: 30%

CC(Cc1ccccc1)Nc1ncnc2c1ncn2[C@@H]1O[C@H](CO)[C@@H](O)[C@H]1O (single isomer, unassigned; (-)) [PIA, (−)-N6-(2-phenylisopropyl)-adenosine]
reported affinity [4]: approximately 50 nM
